Experimental data published in ChEMBL document CHEMBL4190379 (Bioorg Med Chem Lett, 2018).

Legend:
[1] = biological target: T1, Peregrin (Homo sapiens) (UniProt P55201); experiment: Binding affinity to human BRPF1 expressed in bacterial system assessed as remaining binding level at 1 uM by BROMOscan assay relative to control
T1 sequence (whole entry): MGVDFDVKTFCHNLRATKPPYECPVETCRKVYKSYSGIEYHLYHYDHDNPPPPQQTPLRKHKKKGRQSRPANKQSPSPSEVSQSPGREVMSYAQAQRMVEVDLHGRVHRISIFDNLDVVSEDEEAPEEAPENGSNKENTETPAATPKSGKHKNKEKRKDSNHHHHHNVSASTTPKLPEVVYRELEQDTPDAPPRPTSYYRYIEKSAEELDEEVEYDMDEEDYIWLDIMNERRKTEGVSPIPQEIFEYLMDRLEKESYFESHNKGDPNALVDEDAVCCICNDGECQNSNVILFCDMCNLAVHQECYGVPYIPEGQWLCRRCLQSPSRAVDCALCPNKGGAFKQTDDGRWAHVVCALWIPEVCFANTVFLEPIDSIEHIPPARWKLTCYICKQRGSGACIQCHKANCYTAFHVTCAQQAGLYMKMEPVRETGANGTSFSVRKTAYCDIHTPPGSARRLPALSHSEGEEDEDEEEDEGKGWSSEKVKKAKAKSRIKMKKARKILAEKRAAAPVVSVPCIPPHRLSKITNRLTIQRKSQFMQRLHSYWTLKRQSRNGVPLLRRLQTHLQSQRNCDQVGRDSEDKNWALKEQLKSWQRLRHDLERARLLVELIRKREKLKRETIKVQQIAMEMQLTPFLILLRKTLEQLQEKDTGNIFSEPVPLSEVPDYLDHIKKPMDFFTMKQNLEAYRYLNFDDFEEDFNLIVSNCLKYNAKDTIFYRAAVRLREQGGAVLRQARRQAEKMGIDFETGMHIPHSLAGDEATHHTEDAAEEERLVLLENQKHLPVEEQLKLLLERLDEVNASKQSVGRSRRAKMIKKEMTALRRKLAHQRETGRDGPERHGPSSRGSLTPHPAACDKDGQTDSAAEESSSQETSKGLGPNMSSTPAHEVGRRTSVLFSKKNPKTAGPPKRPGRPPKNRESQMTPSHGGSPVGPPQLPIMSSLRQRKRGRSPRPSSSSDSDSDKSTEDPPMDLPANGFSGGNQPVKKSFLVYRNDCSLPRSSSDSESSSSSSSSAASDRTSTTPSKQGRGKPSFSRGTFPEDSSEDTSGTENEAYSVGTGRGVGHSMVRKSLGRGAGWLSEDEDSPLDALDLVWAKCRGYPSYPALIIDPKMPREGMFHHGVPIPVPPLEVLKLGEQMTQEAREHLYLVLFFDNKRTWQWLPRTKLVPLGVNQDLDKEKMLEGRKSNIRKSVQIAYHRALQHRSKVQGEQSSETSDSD

[2] = biological target: T2, Bromodomain-containing protein 1 (Homo sapiens) (UniProt O95696); experiment: Binding affinity to human BRD1 expressed in bacterial system assessed as remaining binding level at 1 uM by BROMOscan assay relative to control
T2 sequence (whole entry): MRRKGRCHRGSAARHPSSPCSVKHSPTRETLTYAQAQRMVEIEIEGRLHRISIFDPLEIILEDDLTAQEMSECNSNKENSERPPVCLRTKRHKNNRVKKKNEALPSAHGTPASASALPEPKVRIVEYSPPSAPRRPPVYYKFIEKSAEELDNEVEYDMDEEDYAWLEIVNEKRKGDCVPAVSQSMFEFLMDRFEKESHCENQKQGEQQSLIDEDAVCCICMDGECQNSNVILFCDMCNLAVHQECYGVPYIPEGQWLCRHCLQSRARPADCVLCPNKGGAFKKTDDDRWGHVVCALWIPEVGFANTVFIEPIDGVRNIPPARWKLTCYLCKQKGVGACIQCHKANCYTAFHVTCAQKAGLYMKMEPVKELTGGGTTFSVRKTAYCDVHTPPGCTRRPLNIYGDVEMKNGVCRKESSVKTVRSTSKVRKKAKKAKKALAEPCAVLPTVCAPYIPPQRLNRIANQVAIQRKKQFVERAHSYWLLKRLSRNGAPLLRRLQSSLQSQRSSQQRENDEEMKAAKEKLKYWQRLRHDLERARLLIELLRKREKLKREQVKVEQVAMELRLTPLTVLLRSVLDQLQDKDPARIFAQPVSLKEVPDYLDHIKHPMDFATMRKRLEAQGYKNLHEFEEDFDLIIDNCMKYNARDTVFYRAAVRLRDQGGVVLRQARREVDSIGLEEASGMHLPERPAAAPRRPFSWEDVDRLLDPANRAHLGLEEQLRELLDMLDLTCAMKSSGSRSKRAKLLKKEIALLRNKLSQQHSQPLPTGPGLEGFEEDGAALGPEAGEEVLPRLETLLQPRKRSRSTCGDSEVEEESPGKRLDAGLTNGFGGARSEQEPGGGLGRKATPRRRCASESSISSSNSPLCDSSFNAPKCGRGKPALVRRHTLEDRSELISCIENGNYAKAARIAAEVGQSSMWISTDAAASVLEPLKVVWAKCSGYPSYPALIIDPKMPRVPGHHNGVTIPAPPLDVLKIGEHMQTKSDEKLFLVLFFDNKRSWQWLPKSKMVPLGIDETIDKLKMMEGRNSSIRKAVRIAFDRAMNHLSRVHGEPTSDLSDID

[3] = biological target: T3, Bromodomain-containing protein 7 (Homo sapiens) (UniProt Q9NPI1); experiment: Binding affinity to human BRD7 expressed in mammalian system assessed as remaining binding level at 1 uM by BROMOscan assay relative to control
T3 sequence (whole entry): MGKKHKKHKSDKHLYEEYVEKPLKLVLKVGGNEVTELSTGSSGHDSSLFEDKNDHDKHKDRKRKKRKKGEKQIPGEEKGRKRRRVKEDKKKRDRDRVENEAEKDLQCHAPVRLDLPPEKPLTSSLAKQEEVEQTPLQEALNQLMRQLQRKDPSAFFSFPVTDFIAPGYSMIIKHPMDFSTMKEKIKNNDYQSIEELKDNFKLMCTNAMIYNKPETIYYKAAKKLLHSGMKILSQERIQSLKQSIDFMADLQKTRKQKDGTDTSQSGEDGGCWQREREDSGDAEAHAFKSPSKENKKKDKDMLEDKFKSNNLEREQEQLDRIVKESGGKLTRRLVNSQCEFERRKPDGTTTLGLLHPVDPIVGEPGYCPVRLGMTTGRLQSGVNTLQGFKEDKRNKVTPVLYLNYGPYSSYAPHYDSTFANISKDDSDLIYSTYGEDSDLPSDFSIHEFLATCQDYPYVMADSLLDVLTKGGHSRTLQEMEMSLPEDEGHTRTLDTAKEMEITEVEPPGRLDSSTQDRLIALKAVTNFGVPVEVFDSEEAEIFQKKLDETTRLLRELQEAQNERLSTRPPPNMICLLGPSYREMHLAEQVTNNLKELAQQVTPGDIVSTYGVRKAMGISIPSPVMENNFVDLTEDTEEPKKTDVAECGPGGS

[4] = biological target: Histone acetyltransferase p300 (Homo sapiens) (UniProt Q09472); experiment: Binding affinity to human EP300 expressed in bacterial system assessed as remaining binding level at 1 uM by BROMOscan assay relative to control
Histone acetyltransferase p300 (Homo sapiens), sequence (Q09472 whole entry): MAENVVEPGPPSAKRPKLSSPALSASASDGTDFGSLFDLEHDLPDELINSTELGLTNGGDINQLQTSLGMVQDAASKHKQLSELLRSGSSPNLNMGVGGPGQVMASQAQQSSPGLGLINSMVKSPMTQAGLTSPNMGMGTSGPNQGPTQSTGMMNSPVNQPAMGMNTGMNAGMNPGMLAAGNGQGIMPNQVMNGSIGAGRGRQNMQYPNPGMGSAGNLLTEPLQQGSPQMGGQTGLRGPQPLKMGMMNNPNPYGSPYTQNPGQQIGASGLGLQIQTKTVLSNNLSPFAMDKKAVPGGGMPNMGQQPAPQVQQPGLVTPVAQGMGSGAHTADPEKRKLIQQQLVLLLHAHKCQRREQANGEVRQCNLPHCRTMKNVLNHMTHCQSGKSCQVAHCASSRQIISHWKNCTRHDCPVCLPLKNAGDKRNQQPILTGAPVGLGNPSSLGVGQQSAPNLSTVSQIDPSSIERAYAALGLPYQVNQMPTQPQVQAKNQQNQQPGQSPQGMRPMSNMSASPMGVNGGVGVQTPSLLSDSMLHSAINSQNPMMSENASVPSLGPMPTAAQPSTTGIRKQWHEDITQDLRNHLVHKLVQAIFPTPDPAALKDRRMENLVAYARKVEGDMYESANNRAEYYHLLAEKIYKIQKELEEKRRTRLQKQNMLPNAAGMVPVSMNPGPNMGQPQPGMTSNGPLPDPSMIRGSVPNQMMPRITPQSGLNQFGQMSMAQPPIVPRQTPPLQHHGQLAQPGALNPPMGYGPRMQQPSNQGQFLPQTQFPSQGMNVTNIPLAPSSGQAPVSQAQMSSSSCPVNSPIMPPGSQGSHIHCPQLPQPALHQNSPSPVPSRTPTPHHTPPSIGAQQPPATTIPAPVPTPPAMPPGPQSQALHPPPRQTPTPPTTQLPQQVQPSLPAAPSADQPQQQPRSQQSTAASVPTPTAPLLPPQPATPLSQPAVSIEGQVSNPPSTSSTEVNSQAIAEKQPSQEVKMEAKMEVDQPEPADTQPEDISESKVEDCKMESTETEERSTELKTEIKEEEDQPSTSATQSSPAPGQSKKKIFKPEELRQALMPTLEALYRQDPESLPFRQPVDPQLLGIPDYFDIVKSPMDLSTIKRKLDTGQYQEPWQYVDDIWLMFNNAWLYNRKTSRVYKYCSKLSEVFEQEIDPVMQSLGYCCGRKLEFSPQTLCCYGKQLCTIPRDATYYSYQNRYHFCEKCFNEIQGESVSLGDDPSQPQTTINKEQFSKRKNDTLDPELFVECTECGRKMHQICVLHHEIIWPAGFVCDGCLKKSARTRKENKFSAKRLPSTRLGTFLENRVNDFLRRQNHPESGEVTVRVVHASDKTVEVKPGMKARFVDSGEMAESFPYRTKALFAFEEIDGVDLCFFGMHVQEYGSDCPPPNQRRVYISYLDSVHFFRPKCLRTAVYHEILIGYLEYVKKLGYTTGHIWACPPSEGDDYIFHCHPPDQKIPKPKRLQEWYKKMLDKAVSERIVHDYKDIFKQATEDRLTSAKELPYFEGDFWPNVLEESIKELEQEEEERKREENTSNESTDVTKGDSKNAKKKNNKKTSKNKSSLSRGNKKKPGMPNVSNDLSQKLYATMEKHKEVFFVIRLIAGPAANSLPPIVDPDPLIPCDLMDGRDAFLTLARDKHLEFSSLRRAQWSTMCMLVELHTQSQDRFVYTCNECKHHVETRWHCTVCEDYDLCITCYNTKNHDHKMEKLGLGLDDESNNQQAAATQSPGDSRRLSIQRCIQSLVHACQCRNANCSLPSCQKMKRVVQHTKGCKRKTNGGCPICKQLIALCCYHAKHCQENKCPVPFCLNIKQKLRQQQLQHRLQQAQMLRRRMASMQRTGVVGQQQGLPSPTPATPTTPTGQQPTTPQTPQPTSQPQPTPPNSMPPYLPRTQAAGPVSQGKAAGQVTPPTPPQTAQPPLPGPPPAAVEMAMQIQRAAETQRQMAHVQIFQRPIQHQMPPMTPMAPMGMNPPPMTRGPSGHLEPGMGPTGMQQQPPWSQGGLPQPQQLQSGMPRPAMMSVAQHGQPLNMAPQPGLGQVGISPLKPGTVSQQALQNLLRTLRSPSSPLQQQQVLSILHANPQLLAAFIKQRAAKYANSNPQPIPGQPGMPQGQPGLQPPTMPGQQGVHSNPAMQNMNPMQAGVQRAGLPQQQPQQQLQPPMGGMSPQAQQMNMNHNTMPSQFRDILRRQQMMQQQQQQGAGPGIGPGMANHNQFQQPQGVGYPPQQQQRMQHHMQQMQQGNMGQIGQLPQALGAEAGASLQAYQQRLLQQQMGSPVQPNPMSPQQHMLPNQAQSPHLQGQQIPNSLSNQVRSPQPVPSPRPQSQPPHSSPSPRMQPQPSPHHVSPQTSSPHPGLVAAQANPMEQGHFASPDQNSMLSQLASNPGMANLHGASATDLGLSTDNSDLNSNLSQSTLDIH

Question: With `Cn1cc2c3c(c[nH]c(=O)c31)-c1cc(CS(C)(=O)=O)ccc1N(c1ccc(F)cc1)C2` as the compound, how does the Activity [1] read?
Answer: The Activity was 69%.

Question: And the Activity [2]?
Answer: Its Activity is 98%.

Question: What about the Activity [3] of the same compound?
Answer: Its Activity is 100%.

Question: What about the Activity [4] of the same compound?
Answer: Its Activity is 42%.

Question: For `Cn1cc2c3c(c[nH]c3c1=O)CN(c1ccc(F)cc1F)c1ccc(CS(C)(=O)=O)cc1-2`, which Activity [1] is on record?
Answer: Its Activity is 14%.

Question: What about the Activity [2] of the same compound?
Answer: Its Activity is 87%.

Question: What about the Activity [3] of the same compound?
Answer: The Activity was 92%.

Question: What about the Activity [4] of the same compound?
Answer: Its Activity is 0%.

Question: What does the source list for `Cn1cc2c3c(c[nH]c3c1=O)CN(c1ccccn1)c1ccc(CS(C)(=O)=O)cc1-2`?
Answer: Activity [1]: 1.2%; Activity [2]: 84%; Activity [3]: 96%; Activity [4]: 0%
